8 compounds from paper PMC6677754, “In silico design and optimization of selective membranolytic anticancer peptides” (Scientific Reports, 2019) can be followed below.

Data set [1] relates to A549 lung adenocarcinoma cell line. The data set is described as follows: Cell viability assay (MTT). The conditions noted are these: Table S2; MTT, 24 h; mean ± sd; N = 2 independent measurements with six technical replicates each (Figs S6-S8); read-out: A549 EC50 /µM. In kind it is cell-based, human. In outline:
(§1)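 Viability by MTT: 10^4 cells/well exposed 24 h to 2-fold peptide dilutions from 100 μM in DMEM, then 1 h with 0.5 mg mL−1 MTT; absorbance at 540 nm relative to peptide-free medium as 100% survival. EC50 from a 3-parameter log-logistic fit.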

The test system of data set [2] is MCF7 breast adenocarcinoma cell line. The data set is described as follows: Cell viability assay (MTT). The data set is classed as cell-based, human. Particulars: Table S2, 24 h, mean ± sd, N = 2 independent measurements with six technical replicates each (Figs S6-S8). In outline: as §1
Data set [3] concerns human erythrocytes. The data set is described as follows: Hemolysis assay. Particulars: red cells of human, 1 h. The data set is classed as cell-based. As to the method: Human erythrocytes were freshly ordered at the Blutspende Zürich. Erythrocytes were washed 3 times with a […] phosphate buffered saline (PBS, Gibco, Thermo Fisher Scientific, Waltham, MA, USA) solution centrifuging at 800 g for 10 min or until the supernatant appeared clear to remove the blood plasma. A 5% v/v erythrocytes : PBS solution was prepared for direct use. For HC50 determination, peptides were dissolved in PBS at an intermediate concentration of 1 mM. A dilution series of the peptide from 200 to 6.25 μM was plated in a round-bottomed 96-well plate in triplicates, with a volume of 50 μL per well. PBS buffer and a solution of 0.1% Triton-X-100 (Fisher Chemical, Loughborough, UK) in PBS were employed as negative and positive controls, respectively. 50 μL of the 5% erythrocyte solution were added in each well and the plates were incubated at 37°C for 1 h. After this time, 100 μL PBS were added to each well and plates were centrifuged at 800 g for 10 min. 100 μL of the supernatant were transferred to a flat-bottomed 96-well plate and the absorbance was measured at 540 nm in a Tecan Infinity M1000 spectrophotometer plate reader. The hemolysis percentage was calculated, considering the absorbance values of the Triton and PBS wells as 100% and 0% hemolysis, respectively.
The resultant sigmoidal curves were analyzed with the drc22 R package using a log-logistic model with 3 fixed parameters to obtain the HC50 values. […]
NCI-60 screening procedure […]
Each peptide was tested in a 5-concentration assay, starting at 10^-4 M and diluting 10-fold to the lowest 10^-8 M concentration. The peptides were incubated for 48 h and the cell concentration was assayed by using the sulforhodamine B assay25 and optical density measurements. The growth inhibition (GI50) value24, measures the growth inhibitory power of the drug agent. The GI50 value is the concentration of the test drug for which the condition in Eq. S1 is met, where T is the optical density of the test well after a 48-h exposure to the peptide, T0 the optical density before applying the peptide drug and C the control optical density of a well where no peptide was applied.

Data set [4] deals with noncancer HDMEC primary cells (human dermal microvascular endothelial cells). As to the kind of experiment: Cell viability assay (MTT). The data set is classed as cell-based. The conditions noted are these: Table S2; noncancer primary cells; MTT, 24 h; mean ± sd; N = 2 independent measurements with six technical replicates each (Figs S6-S8). On the procedure: 10% fetal bovine serum and 1% penicillin-streptomycin (Thermo Fisher Scientific, Waltham, MA, USA). The cultures were kept at 37°C in a 5% CO2 atmosphere incubator (Thermo Fisher Scientific, Waltham, MA, USA) and split every two to three days to new culture flasks. Cells no older than 20 passages were used for experiments.
For splitting, the cell culture media was aspirated, the cells were washed with 0.01 M phosphate buffered saline (PBS, Gibco, Thermo Fisher Scientific, Waltham, MA, USA) and trypsin-EDTA (trypsin - ethylene diamine tetraacetic acid, Fisher scientific, UK) was added to the cell layer to detach them from the flask surface. After incubation for 2 min at 37°C, cells were resuspended with an equal volume of DMEM media and centrifuged at 310 g for 5 min at 4°C. After removal of the supernatant the cells were resuspended in DMEM cell media and split into new cell culture flasks at a 1/3 to 1/5 ratio.
Determination of the anticancer peptides half effective concentration (EC50) was performed by a 3-(4,5-dimethylthiazol-2-yl)-2,5-diphenyltetrazolium bromide (MTT) assay, as described elsewhere21. Briefly, […] were seeded in each well of a 96-well plate and left to adhere and […]
sulfoxide (DMSO, Fisher Scientific, UK) at an intermediate concentration of 1 mM. The peptides were then diluted in a 2-fold dilution series starting at 100 μM with DMEM culture media. Cells were incubated with the peptide solutions for 24 h. After this time, the cell media was removed and the cells were incubated for 1 h with a 0.5 mg mL−1 MTT solution to allow enough time for formazan crystal formation (Sigma Aldrich, Steinheim, Germany). The supernatant was removed and 100 μL of DMSO were added into each well to resuspend the formazan crystals.
After manually shaking the plates to completely dissolve the crystals, the absorbance was measured at 540 nm in a Tecan Infinity M1000 spectrophotometer. The cell viability was determined based on the quantification of the color intensity in each culture well, considering the absorbance obtained by the control media without peptides as a 100% survival. The resultant sigmoidal curves were analyzed with the drc22 R package using a log-logistic model

Each structure is given as a SMILES string. Peptide text beside a SMILES is read from it.

`CC[C@H](C)[C@H](NC(=O)[C@H](CCC(N)=O)NC(=O)[C@H](Cc1ccccc1)NC(=O)[C@H](C)NC(=O)[C@H](CCCCN)NC(=O)[C@H](CCCCN)NC(=O)[C@H](Cc1ccc(O)cc1)NC(=O)[C@H](Cc1c[nH]c2ccccc12)NC(=O)[C@@H](NC(=O)[C@H](CCCCN)NC(=O)[C@@H](NC(=O)[C@H](CCCCN)NC(=O)[C@H](CCCCN)NC(=O)[C@H](Cc1ccccc1)NC(=O)[C@@H](NC(=O)[C@@H](N)CCC(N)=O)[C@@H](C)CC)C(C)C)[C@@H](C)O)C(=O)N[C@@H](CC(C)C)C(=O)NCC(=O)N[C@@H](CCCNC(=N)N)C(=O)N[C@@H](CC(C)C)C(N)=O` [Off2.6] (H-QIFKKVKTWYKKAFQILGRL-NH2): the EC50 was found to be 12.4 ± 0.1 µM in data set [1], 9.3 ± 0.2 µM in data set [2] and 21 ± 2 µM in data set [4]. Further, in data set [3], the “Eryhtr. HC50 /µM” value is recorded as more than 100 µM.
Taken in the same sequence, the figures for `CC[C@H](C)[C@H](NC(=O)[C@H](CC(C)C)NC(=O)[C@@H](N)CCCNC(=N)N)C(=O)N[C@@H](CCCCN)C(=O)N[C@@H](CCCNC(=N)N)C(=O)N[C@H](C(=O)N[C@@H](CCCCN)C(=O)N[C@H](C(=O)N[C@@H](Cc1c[nH]c2ccccc12)C(=O)N[C@@H](Cc1ccc(O)cc1)C(=O)N[C@@H](CCCNC(=N)N)C(=O)N[C@@H](CCCCN)C(=O)N[C@@H](C)C(=O)N[C@@H](Cc1c[nH]c2ccccc12)C(=O)N[C@@H](CCCCN)C(=O)N[C@H](C(=O)N[C@H](C(=O)NCC(=O)N[C@@H](CCCCN)C(=O)N[C@@H](Cc1ccccc1)C(N)=O)C(C)C)C(C)C)[C@@H](C)O)[C@@H](C)CC` [Off2.7] (H-RLIKRIKTWYRKAWKVVGKF-NH2) were 15 ± 1 µM, 11.2 ± 0.7 µM, 23 ± 5 µM and more than 200 µM.
As to `CC[C@H](C)[C@H](NC(=O)[C@@H](NC(=O)[C@H](Cc1c[nH]cn1)NC(=O)[C@H](Cc1c[nH]c2ccccc12)NC(=O)[C@H](C)NC(=O)[C@H](CCCNC(=N)N)NC(=O)[C@H](CCC(=O)O)NC(=O)[C@H](Cc1ccc(O)cc1)NC(=O)[C@H](Cc1ccc(O)cc1)NC(=O)[C@@H](NC(=O)[C@H](Cc1c[nH]cn1)NC(=O)[C@H](CC(C)C)NC(=O)[C@H](Cc1c[nH]cn1)NC(=O)[C@H](CCCCN)NC(=O)[C@H](CC(C)C)NC(=O)[C@H](Cc1ccccc1)NC(=O)[C@@H](N)CCCNC(=N)N)[C@@H](C)O)C(C)C)C(=O)NCC(=O)N[C@@H](Cc1c[nH]cn1)C(=O)N[C@@H](CC(C)C)C(N)=O` [Off2.8] (H-RFLKHLHTYYERAWHVIGHL-NH2), the EC50 is more than 100 µM in data set [1], more than 100 µM in data set [2] and 2 ± 2 µM in data set [4]. Besides, the “Eryhtr. HC50 /µM” value in data set [3] is more than 200 µM.
As to `CC[C@H](C)[C@H](NC(=O)[C@H](CC(C)C)NC(=O)[C@@H](N)Cc1c[nH]cn1)C(=O)N[C@@H](Cc1c[nH]cn1)C(=O)N[C@@H](CCCNC(=N)N)C(=O)N[C@@H](CC(C)C)C(=O)N[C@@H](Cc1c[nH]cn1)C(=O)N[C@H](C(=O)N[C@@H](Cc1ccc(O)cc1)C(=O)N[C@@H](Cc1c[nH]c2ccccc12)C(=O)N[C@@H](Cc1c[nH]cn1)C(=O)N[C@@H](CCCCN)C(=O)N1CCC[C@H]1C(=O)N[C@@H](Cc1c[nH]c2ccccc12)C(=O)N[C@@H](Cc1c[nH]cn1)C(=O)N[C@@H](Cc1ccc(O)cc1)C(=O)N[C@@H](CC(C)C)C(=O)NCC(=O)N[C@@H](CCCCN)C(=O)N[C@@H](CC(C)C)C(N)=O)[C@@H](C)O` [Off2.9] (H-HLIHRLHTYWHKPWHYLGKL-NH2), the EC50 is more than 100 µM in data set [1], more than 100 µM in data set [2] and 135 ± 2 µM in data set [4]. The “Eryhtr. HC50 /µM” value in data set [3] is given as more than 200 µM.
In the case of `CC[C@H](C)[C@H](NC(=O)[C@H](CCCCN)NC(=O)[C@@H]1CCCN1C(=O)[C@H](Cc1c[nH]c2ccccc12)NC(=O)[C@@H](NC(=O)[C@H](Cc1c[nH]cn1)NC(=O)[C@H](Cc1c[nH]c2ccccc12)NC(=O)[C@H](C)NC(=O)[C@H](CCCCN)NC(=O)[C@H](CCCCN)NC(=O)[C@@H](NC(=O)[C@H](Cc1c[nH]c2ccccc12)NC(=O)[C@@H](NC(=O)[C@H](Cc1c[nH]cn1)NC(=O)[C@H](CC(C)C)NC(=O)[C@H](CCC(N)=O)NC(=O)[C@H](CCCNC(=N)N)NC(=O)[C@@H](NC(=O)[C@H](CCCNC(=N)N)NC(=O)[C@@H](N)CCC(N)=O)[C@@H](C)CC)[C@@H](C)O)[C@@H](C)CC)[C@@H](C)CC)C(N)=O` [Off2.10] (H-QRIRQLHTWIKKAWHIWPKI-NH2), the EC50 worked out at 40 ± 2 µM in data set [1], 28.6 ± 0.1 µM in data set [2] and 39.7 ± 0.3 µM in data set [4]. Moreover, the “Eryhtr. HC50 /µM” value in data set [3] is given as more than 200 µM.
Regarding `CC[C@H](C)[C@H](NC(=O)[C@H](CCCCN)NC(=O)CNC(=O)[C@@H](NC(=O)[C@H](Cc1ccc(O)cc1)NC(=O)[C@H](Cc1c[nH]cn1)NC(=O)[C@H](Cc1c[nH]c2ccccc12)NC(=O)[C@@H](NC(=O)[C@H](CCCCN)NC(=O)[C@H](CCCCN)NC(=O)[C@H](CC(C)C)NC(=O)[C@@H](NC(=O)[C@H](Cc1c[nH]cn1)NC(=O)[C@H](CCCNC(=N)N)NC(=O)[C@H](Cc1ccccc1)NC(=O)[C@H](CCCCN)NC(=O)[C@H](CCCCN)NC(=O)[C@H](Cc1ccc(O)cc1)NC(=O)[C@H](CC(C)C)NC(=O)[C@@H](N)CCCCN)[C@@H](C)CC)C(C)C)C(C)C)C(N)=O` [Off3] (H-KLYKKFRHILKKVWHYVGKI-NH2), the EC50 in data set [1] stood at 14 ± 3 µM; in data set [2] it was 10 ± 1 µM; in data set [4], 10 ± 3 µM. Besides, the “Eryhtr. HC50 /µM” value in data set [3] was 29 ± 3 µM.
With `CC[C@H](C)[C@H](NC(=O)[C@H](CC(C)C)NC(=O)[C@H](CCCCN)NC(=O)[C@H](Cc1ccccc1)NC(=O)[C@@H](NC(=O)[C@H](CCCCN)NC(=O)[C@H](CCCCN)NC(=O)[C@H](Cc1ccccc1)NC(=O)[C@H](Cc1c[nH]c2ccccc12)NC(=O)[C@@H](NC(=O)[C@H](CCCCN)NC(=O)[C@H](CC(C)C)NC(=O)[C@H](Cc1c[nH]cn1)NC(=O)[C@H](CCCNC(=N)N)NC(=O)[C@@H](NC(=O)[C@H](Cc1ccc(O)cc1)NC(=O)[C@@H](N)CCCCN)[C@@H](C)CC)[C@@H](C)O)C(C)C)C(=O)NCC(=O)N[C@@H](CCC(=O)O)C(=O)N[C@H](C(N)=O)C(C)C` [Off4] (H-KYIRHLKTWFKKVFKLIGEV-NH2), the figures for the EC50 in data set [1], in data set [2] and in data set [4] were 15 ± 0.1 µM, 11 ± 2 µM and 7.1 ± 0.1 µM, respectively. Besides, the “Eryhtr. HC50 /µM” value in data set [3] came to 20 ± 3 µM.
Turning to `CC[C@H](C)[C@H](NC(=O)[C@H](CCCCN)NC(=O)[C@H](CCCCN)NC(=O)[C@H](CC(C)C)NC(=O)[C@H](Cc1ccccc1)NC(=O)[C@H](CC(=O)O)NC(=O)[C@H](CCCCN)NC(=O)[C@H](Cc1ccccc1)NC(=O)[C@H](CCCCN)NC(=O)[C@H](CCCCN)NC(=O)[C@H](Cc1ccccc1)NC(=O)[C@@H](NC(=O)[C@@H](N)CCCCN)[C@@H](C)CC)C(=O)N[C@@H](Cc1ccccc1)C(=O)N[C@@H](CCC(N)=O)C(=O)N[C@@H](Cc1ccc(O)cc1)C(=O)N[C@@H](CC(C)C)C(=O)NCC(=O)N[C@@H](CCCCN)C(=O)N[C@H](C(N)=O)C(C)C` [Off5] (H-KIFKKFKDFLKKIFQYLGKV-NH2), the figures for the EC50 in data set [1], in data set [2] and in data set [4] were 17.4 ± 0.1 µM, 12.4 ± 0.4 µM and 10.1 ± 0.2 µM, respectively. Moreover, the “Eryhtr. HC50 /µM” value in data set [3] is 15 ± 2 µM.
